The experiment concerns the target T1, human V1a receptor (Homo sapiens, UniProt P37288).
T1 construct: expressed in transfected cells; host or cells: HEK293 cells, transiently transfected; cell membranes
Description: human V1a receptor binding (3H-Vasopressin SPA, HEK293 membranes). How it is done: The human V1a receptor was cloned by RT-PCR from total human liver RNA. The coding sequence was subcloned in an expression vector after sequencing to confirm the identity of the amplified sequence. […] Cell membranes were prepared from HEK293 cells transiently transfected with the expression vector and grown in 20 liter fermenters with the following protocol.
50 g of cells are resuspended in 30 ml freshly prepared ice cold Lysis buffer (50 mM HEPES, 1 mM EDTA, 10 mM magnesium dichloride adjusted to pH=7.4+complete cocktail of protease inhibitor (Roche Diagnostics)). Homogenized with Polytron for 1 min and sonicated on ice for 2×2 minutes at 80% intensity (Vibracell sonicator). The preparation is centrifuged 20 min at 500 g at 4° C., the pellet is discarded and the supernatant centrifuged 1 hour at 43′000 g at 4° C. (19'000 rpm). The pellet is resuspended in 12.5 ml Lysis buffer+12.5 ml sucrose 20% and homogenized using a Polytron for 1-2 min. The protein concentration is determined by the Bradford method and aliquots are stored at −80° C. until use. For binding studies 60 mg Yttrium silicate SPA beads (Amersham®) are mixed with an aliquot of membrane in binding buffer (50 mM Tris, 120 mM sodium chloride, 5 mM potassium chloride, 2 mM calcium dichloride, 10 mM magnesium dichloride) for 15 minutes with mixing. 50 μl of bead/membrane mixture is then added to each well of a 96 well plate, followed by 50 μl of 4 nM 3H-Vasopressin (American Radiolabeled Chemicals). For total binding measurement 100 μl of binding buffer are added to the respective wells, for non-specific binding 100 μl of 8.4 mM cold vasopressin and for compound testing 100 μl of a serial dilution of each compound in 2% dimethyl sulfoxide. The plate is incubated 1 h at room temperature, centrifuged 1 min at 1000 g and counted on a Packard Top-Count. Non-specific binding counts are subtracted from each well and data is normalized to the maximum specific binding set at 100%. To calculate an IC50 the curve is fitted using a non-linear regression model (XLfit) and the Ki is calculated using the Cheng-Prussoff equation.

Setting [1] is: 3H-Vasopressin displacement, membranes of HEK293 cells transiently transfected with human V1a receptor, Ki by Cheng-Prusoff, read-out: pKi (hV1a) (converted).

13 compounds from US8481528B2 (Hoffmann-La Roche Inc., priority 2010, dated 2013) can be followed below.

Structures can show the parent of a compound that is named as a salt. Where two headings read alike, the source gives them in different places.

T1 sequence (P37288 whole entry): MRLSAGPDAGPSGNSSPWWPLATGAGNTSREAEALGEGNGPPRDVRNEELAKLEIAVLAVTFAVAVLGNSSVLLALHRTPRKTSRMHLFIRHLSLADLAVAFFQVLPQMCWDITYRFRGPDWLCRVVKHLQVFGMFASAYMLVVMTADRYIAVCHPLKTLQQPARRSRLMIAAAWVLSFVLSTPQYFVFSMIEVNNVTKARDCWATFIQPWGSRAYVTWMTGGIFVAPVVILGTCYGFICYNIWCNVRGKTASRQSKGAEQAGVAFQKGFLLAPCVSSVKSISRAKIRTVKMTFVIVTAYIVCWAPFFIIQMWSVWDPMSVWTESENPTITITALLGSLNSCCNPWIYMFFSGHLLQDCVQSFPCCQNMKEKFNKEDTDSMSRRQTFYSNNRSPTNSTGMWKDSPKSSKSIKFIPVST

As to `CN1Cc2cc(Cl)ccc2-n2c(nnc2[C@H]2CC[C@H](c3nsc4ccccc43)CC2)C1` [Example 21, trans-1-(4-Benzo[d]isothiazol-3-yl-cyclohexyl)-8-chloro-5-methyl-5,6-dihydro-4H-2,3,5,10b-tetraaza-benzo[e]azulene], under setting [1], the Ki is 1.58 nM.

Take `CC(C)(C)OC(=O)N1Cc2cc(Cl)ccc2-n2c(nnc2[C@H]2CC[C@H](c3noc4ccc(F)cc43)CC2)C1` [Example 10, trans-8-Chloro-1-[4-(5-fluoro-benzo[d]isoxazol-3-yl)-cyclohexyl]-4H,6H-2,3,5,10b-tetraaza-benzo[e]azulene-5-carboxylic acid tert-butyl ester]: the Ki under setting [1] is 3.24 nM.

Compound `Clc1ccc2c(c1)CN(C1CCC1)Cc1nnc([C@H]3CC[C@H](c4nsc5ccccc54)CC3)n1-2` [Example 22, trans-1-(4-Benzo[d]isothiazol-3-yl-cyclohexyl)-8-chloro-5-cyclobutyl-5,6-dihydro-4H-2,3,5,10b-tetraaza-benzo[e]azulene] gave a Ki of 0.302 nM.

Turning to `CN1Cc2cc(Cl)ccc2-n2c(nnc2[C@H]2CC[C@H](c3noc4cccnc43)CC2)C1` [Example 15, trans-8-Chloro-1-(4-isoxazolo[4,5-b]pyridin-3-yl-cyclohexyl)-5-methyl-5,6-dihydro-4H-2,3,5,10b-tetraaza-benzo[e]azulene], under setting [1], the Ki was 0.708 nM.

`Clc1ccc2c(c1)CNCc1nnc([C@H]3CC[C@@H](c4nsc5ccccc54)CC3)n1-2` [Example 34, cis-1-(4-Benzo[d]isothiazol-3-yl-cyclohexyl)-8-chloro-5,6-dihydro-4H-2,3,5,10b-tetraaza-benzo[e]azulene]: the Ki is 25.7 nM.

In the case of `CN1Cc2cc(Cl)ccc2-n2c(nnc2[C@H]2CC[C@H](c3noc4ccccc43)CC2)C1` [Example 6, trans-1-(4-Benzo[d]isoxazol-3-yl-cyclohexyl)-8-chloro-5-methyl-5,6-dihydro-4H-2,3,5,10b-tetraaza-benzo[e]azulene], the Ki was 0.794 nM.

Regarding `Clc1ccc2c(c1)CNCc1nnc([C@H]3CC[C@H](c4noc5ccccc54)CC3)n1-2` [Example 5, trans-1-(4-Benzo[d]isoxazol-3-yl-cyclohexyl)-8-chloro-5,6-dihydro-4H-2,3,5,10b-tetraaza-benzo[e]azulene hydrochloride], the Ki under setting [1] is 0.891 nM.

Take `CC(=O)N1Cc2cc(Cl)ccc2-n2c(nnc2[C@H]2CC[C@H](c3nsc4ccccc43)CC2)C1` [Example 24, trans-1-[1-(4-Benzo[d]isothiazol-3-yl-cyclohexyl)-8-chloro-4H,6H-2,3,5,10b-tetraaza-benzo[e]azulen-5-yl]-ethanone]: the Ki was 0.398 nM.

As for `CC(C)(C)OC(=O)N1Cc2cc(Cl)ccc2-n2c(nnc2[C@H]2CC[C@H](c3noc4ccccc43)CC2)C1` [Example 2, trans-1-(4-Benzo[d]isoxazol-3-yl-cyclohexyl)-8-chloro-4H,6H-2,3,5,10b-tetraaza-benzo[e]azulene-5-carboxylic acid tert-butyl ester], under setting [1], the Ki is 4.79 nM.

For the compound `CC(C)(C)OC(=O)N1Cc2cc(Cl)ccc2-n2c(nnc2[C@H]2CC[C@@H](c3noc4ccccc43)CC2)C1` [Example 1, cis-1-(4-Benzo[d]isoxazol-3-yl-cyclohexyl)-8-chloro-4H,6H-2,3,5,10b-tetraaza-benzo[e]azulene-5-carboxylic acid tert-butyl ester], the Ki under setting [1] is 8.91 nM.

With `Clc1ccc2c(c1)CNCc1nnc([C@H]3CC[C@@H](c4noc5ccccc54)CC3)n1-2` [Example 3, cis-1-(4-Benzo[d]isoxazol-3-yl-cyclohexyl)-8-chloro-5,6-dihydro-4H-2,3,5,10b-tetraaza-benzo[e]azulene hydrochloride], the Ki under setting [1] was 11.2 nM.

With `CN1Cc2cc(Cl)ccc2-n2c(nnc2[C@H]2CC[C@H](c3nsc4cccnc43)CC2)C1` [Example 29, trans-8-Chloro-1-(4-isothiazolo[4,5-b]pyridin-3-yl-cyclohexyl)-5-methyl-5,6-dihydro-4H-2,3,5,10b-tetraaza-benzo[e]azulene], the Ki under setting [1] is 0.794 nM.

For `CC(C)(C)OC(=O)N1Cc2cc(Cl)ccc2-n2c(nnc2[C@H]2CC[C@H](c3noc4ncccc43)CC2)C1` [Example 16, trans-8-Chloro-1-(4-isoxazolo[5,4-b]pyridin-3-yl-cyclohexyl)-4H,6H-2,3,5,10b-tetraaza-benzo[e]azulene-5-carboxylic acid tert-butyl ester], the Ki was 3.63 nM.
